Test results: patent US11021444B2, “Antiviral compounds” (priority 2013, dated 2021)

Tests used:
RSV replicon = test: microbe, parasite or virus in culture; assay type: cell-based; conditions: human respiratory syncytial virus, read-out: EC50, the concentration of the drug required for reducing RSV replicon RNA by 50%
recombinant RSV complex = recombinant RSV complex (Human respiratory syncytial virus A, UniProt P28887); test: RSV Polymerase Inhibition Assay; assay type: biochemical
Procedure, shortened: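 Inhibition measured as reduced incorporation of radiolabel into RNA products, detected by scintillation counting. Reactions: recombinant RSV complex (10 nM), RNA oligonucleotides, Tris-HCl pH 7.5, 6 mM MgCl2, inhibitor titration, 2 h at 30 °C, EDTA stop.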

[1] = Cytotoxicity Determination (CCK-8, without addition of virus); assay type: cell-based; conditions: human, 50% cytotoxicity concentration (CC50)
Procedure, shortened: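 Cytotoxicity was measured by CCK-8 after 3-4 hours at 37 °C, following 5 days of uninfected exposure at 37 °C and 5% CO2. Compounds ran as duplicate 7-point 1/2 dilutions starting at 100 μM, with 1% final DMSO. HEp-2 cells had been plated at 1,500/well the day before.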

[2] = test system: Respiratory Syncytial Virus (RSV) long strain; test: microbe, parasite or virus in culture; assay type: cell-based; conditions: human respiratory syncytial virus, HEp-2, 120 h, read-out: 50% effective concentration (EC50), HEp-2 cells infected with RSV long strain, 5 days, CCK-8 readout; Tables A and B list compounds by EC50 band
Procedure, shortened: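 CPE-reduction format: viability measured colorimetrically with CCK-8 (450 nm, 630 nm reference) after 3-4 h, following 5-day infection at 37 °C, 5% CO2. Cells were HEp-2; inoculum 100 TCID50/well; duplicate 9-point 1/3 series starting at 100 μM or 1 μM.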

Sequence of recombinant RSV complex (P28887 whole entry): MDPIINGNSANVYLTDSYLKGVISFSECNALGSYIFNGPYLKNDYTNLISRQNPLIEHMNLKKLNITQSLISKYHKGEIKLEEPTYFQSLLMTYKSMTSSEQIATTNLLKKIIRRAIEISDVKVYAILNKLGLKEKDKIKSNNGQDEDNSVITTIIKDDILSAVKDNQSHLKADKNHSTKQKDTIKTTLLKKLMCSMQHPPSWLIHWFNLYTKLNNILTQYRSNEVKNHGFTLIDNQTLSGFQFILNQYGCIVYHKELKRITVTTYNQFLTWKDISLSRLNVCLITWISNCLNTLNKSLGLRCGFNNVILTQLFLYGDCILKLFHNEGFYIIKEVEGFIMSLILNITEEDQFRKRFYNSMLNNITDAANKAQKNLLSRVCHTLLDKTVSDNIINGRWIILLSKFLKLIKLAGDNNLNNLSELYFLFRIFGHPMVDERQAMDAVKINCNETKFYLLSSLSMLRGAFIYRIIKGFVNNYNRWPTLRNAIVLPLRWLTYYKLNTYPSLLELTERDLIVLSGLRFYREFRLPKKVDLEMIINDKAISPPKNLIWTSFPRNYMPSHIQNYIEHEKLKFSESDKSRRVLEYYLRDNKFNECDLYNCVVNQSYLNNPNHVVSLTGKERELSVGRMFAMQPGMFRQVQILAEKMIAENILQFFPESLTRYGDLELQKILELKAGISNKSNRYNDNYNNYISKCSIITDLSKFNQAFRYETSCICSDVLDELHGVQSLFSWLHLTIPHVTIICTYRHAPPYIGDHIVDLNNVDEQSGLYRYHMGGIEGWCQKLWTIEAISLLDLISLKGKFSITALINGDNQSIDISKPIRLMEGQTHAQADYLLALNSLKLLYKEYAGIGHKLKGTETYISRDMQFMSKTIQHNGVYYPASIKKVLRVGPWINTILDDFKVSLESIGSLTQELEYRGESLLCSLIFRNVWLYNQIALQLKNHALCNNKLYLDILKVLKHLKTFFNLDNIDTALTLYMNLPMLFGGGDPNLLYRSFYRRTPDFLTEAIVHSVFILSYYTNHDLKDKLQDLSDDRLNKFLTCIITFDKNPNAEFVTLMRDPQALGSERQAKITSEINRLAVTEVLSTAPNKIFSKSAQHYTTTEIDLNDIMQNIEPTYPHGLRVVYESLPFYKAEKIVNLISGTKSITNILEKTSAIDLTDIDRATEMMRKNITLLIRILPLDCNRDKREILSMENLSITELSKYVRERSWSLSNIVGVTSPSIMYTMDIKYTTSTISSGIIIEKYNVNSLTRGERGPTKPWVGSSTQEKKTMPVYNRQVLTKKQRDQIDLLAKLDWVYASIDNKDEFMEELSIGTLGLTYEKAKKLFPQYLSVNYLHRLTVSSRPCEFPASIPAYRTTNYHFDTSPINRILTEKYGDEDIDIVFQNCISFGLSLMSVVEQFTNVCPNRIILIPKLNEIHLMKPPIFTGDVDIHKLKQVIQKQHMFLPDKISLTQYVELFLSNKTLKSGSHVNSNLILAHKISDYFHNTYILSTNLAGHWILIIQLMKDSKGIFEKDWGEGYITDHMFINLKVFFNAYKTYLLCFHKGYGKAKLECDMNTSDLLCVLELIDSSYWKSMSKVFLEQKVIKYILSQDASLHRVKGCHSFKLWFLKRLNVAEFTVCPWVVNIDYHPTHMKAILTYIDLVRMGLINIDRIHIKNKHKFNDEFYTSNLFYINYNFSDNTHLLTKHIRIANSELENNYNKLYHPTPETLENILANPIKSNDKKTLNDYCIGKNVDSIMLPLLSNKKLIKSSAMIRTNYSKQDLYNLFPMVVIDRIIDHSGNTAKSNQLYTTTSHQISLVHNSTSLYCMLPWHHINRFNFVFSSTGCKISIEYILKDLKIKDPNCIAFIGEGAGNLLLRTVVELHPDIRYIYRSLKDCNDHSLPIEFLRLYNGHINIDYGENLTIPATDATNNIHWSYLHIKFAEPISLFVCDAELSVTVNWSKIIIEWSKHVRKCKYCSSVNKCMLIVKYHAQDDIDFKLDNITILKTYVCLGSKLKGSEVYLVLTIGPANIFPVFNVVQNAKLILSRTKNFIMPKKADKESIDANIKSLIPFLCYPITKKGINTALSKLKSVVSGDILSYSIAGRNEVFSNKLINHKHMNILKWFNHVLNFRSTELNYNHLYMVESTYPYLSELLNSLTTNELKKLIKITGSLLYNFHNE
Sequence of recombinant RSV complex (P03421 whole entry, further chain): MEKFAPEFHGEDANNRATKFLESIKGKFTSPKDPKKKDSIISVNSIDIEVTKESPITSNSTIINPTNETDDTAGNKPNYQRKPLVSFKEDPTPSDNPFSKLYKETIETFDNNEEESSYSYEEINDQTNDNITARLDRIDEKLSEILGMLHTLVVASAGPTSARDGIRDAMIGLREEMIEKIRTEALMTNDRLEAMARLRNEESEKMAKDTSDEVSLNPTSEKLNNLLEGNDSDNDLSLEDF

Row | SMILES | EC50 (RSV replicon) | IC50 (recombinant RSV complex) | CC50 at 5 days [1] | EC50 [2]
1 | COc1cc(C(=O)NCC(O)(c2cc(C(C)(C)N)cc(-c3ccc(C(F)(F)F)cc3)n2)C(F)(F)F)ccc1OC1CC1 (stereo not shown) [Compound 523] | < 1 µM | < 1 µM |  | 
2 | COc1cc(C(=O)NCC(O)(c2cc(C(C)(C)N)cc(-c3ccc(F)c(Br)c3)n2)C(F)(F)F)ccc1OC1CC1 (stereo not shown) [Compound 524] | < 1 µM | < 1 µM |  | 
3 | COc1cc(C(=O)NCC(O)(c2cc(C3(O)CNC3)cc(-c3ccc(F)c(Cl)c3)n2)C(F)(F)F)ccc1OC1CC1 (stereo not shown) [Compound 555] | < 1 µM | < 1 µM |  | 
4 | COc1cc(C(=O)NCC(O)(c2cc(C3(C)CC(O)C3)cc(-c3ccc(F)c(Cl)c3)n2)C(F)(F)F)ccc1OC1CC1 (stereo not shown) [Compound 564] | < 1 µM | < 10 µM |  | 
5 | COc1cc(C(=O)NCC(O)(c2cc(C(C)(C)N)cc(-c3ccc(Cl)nc3)n2)C(F)(F)F)ccc1OC1CC1 (stereo not shown) [Compound 567] | < 1 µM | < 1 µM |  | 
6 | COc1cc(C(=O)NCC(O)(c2cc(C(C)(C)N)cc(-c3ccc(F)c(Cl)c3)n2)C(F)(F)F)ccc1OCC(C)OC(=O)OC(C)C (stereo not shown) [Compound 572] | < 1 µM | < 10 µM |  | 
7 | COc1cc(C(=O)NCC(O)(c2cc(C3CCNCC3)cc(-c3ccc(F)c(Cl)c3)n2)C(F)(F)F)ccc1OC1CC1 (stereo not shown) [Compound 576] | < 1 µM | < 1 µM |  | 
8 | COc1cc(C(=O)NCC(O)(c2cc(C(C)(C)NC3COC3)cc(-c3ccc(F)cc3)n2)C(F)(F)F)ccc1OC1CC1 (stereo not shown) [Compound 581] | < 1 µM | < 1 µM |  | 
9 | COc1cc(C(=O)NCC(O)(c2cc(C3(C)CN(C(C)C)C3)cc(-c3ccc(F)cc3)n2)C(F)(F)F)ccc1OCCO (stereo not shown) [Compound 584] | < 1 µM | < 1 µM |  | 
10 | COc1cc(C(=O)NCC(O)(c2cc(C(C)(N)CO)cc(-c3ccc(F)cc3)n2)C(F)(F)F)ccc1OC1CC1 (stereo not shown) [Compound 600] | < 1 µM | < 1 µM |  | 
11 | COc1cc(C(=O)NCC(O)(c2cc(C(C)(C)NC(C)=O)cc(-c3ccc(F)c(Cl)c3)n2)C(F)(F)F)ccc1OC[C@@H](C)O (stereo partly shown) [Compound 601] | < 1 µM | < 1 µM |  | 
12 | COc1cc(C(=O)NCC(C)(O)c2cc(C(C)(C)N)cc(-c3ccc(F)cc3)n2)ccc1OCC(N)=O (stereo not shown) [Compound 602] | < 1 µM | < 1 µM |  | 
13 | COc1cc(C(=O)NCC(O)(c2cc([C@]3(C)CCN3)cc(-c3ccc(F)c(Cl)c3)n2)C(F)(F)F)ccc1OC1CC1 (stereo partly shown) [Compound 603] | < 1 µM | < 1 µM |  | 
14 | COC(=O)C(C)(N)c1cc(-c2ccc(F)cc2)nc(C(O)(CNC(=O)c2ccc(OC3CC3)c(OC)c2)C(F)(F)F)c1 (stereo not shown) [Compound 622] | < 1 µM | < 1 µM |  | 
15 | COc1cc(C(=O)NC[C@](O)(c2cc3c(c(-c4ccc(F)cc4)n2)OC[C@@]3(C)N)C(F)(F)F)ccc1OC[C@@H](C)O [Compound 632] |  | < 1 µM | 10 to 100 µM | < 1 µM
16 | COc1cc(C(=O)NC[C@@](O)(c2cc3c(c(-c4ccc(F)cc4)n2)OCC3(C)CN)C(F)(F)F)ccc1OCCO (stereo partly shown) [Compound 633a] |  | < 1 µM | 10 to 100 µM | 1 to 50 µM
17 | COc1cc(C(=O)NCC(O)(c2cc(C(C)(C)N)cc(-c3ccc(F)cc3)n2)C(F)(F)F)ccc1OC/C(N)=N/O (stereo not shown) [Compound 636] | < 1 µM | < 1 µM |  | 
18 | CC(C)(N)c1cc(-c2ccc(F)cc2)nc(C(O)(CNC(=O)c2ccc3c(c2)CNC(=O)N3)C(F)(F)F)c1 (stereo not shown) [Compound 639] |  | < 1 µM | 10 to 100 µM | 1 to 50 µM
19 | COc1cc(C(=O)NCC(F)(c2cc(C(C)(C)N)cc(-c3ccc(F)c(Cl)c3)n2)C(F)(F)F)ccc1OC1CC1 (stereo not shown) [Compound 641] | < 1 µM | < 1 µM |  | 
20 | COc1cc(C(=O)NCC(O)(c2cc3c(c(-c4c[nH]c5c(F)cccc45)n2)OCC3(C)N)C(F)(F)F)ccc1OCCO (stereo not shown) [Compound 647] | < 1 µM | < 1 µM |  | 
21 | COc1cc(C(=O)NC[C@](O)(c2cc3c(c(-c4ccc(F)cc4)n2)OCC3(N)CO)C(F)(F)F)ccc1OC1CC1 (stereo partly shown) [Compound 654] |  | < 1 µM | 10 to 100 µM | < 1 µM
22 | COc1cc(C(=O)NCC(O)(c2cc3c(c(-c4ccc(Cl)c(Cl)c4)n2)OCC3(C)N)C(F)(F)F)ccc1OCCO (stereo not shown) [Compound 662] |  | < 1 µM | 10 to 100 µM | < 1 µM
23 | COc1cc(C(=O)NCC(O)(c2cc3c(c(-c4ccc(Cl)c(F)c4)n2)OCC3(C)N)C(F)(F)F)ccc1CO[C@@H](C)O (stereo partly shown) [Compound 666] |  | < 1 µM | 10 to 100 µM | < 1 µM
24 | COc1cc(C(=O)NCC(O)(c2cc3c(c(-c4ccc(C(F)(F)F)nc4)n2)OCC3(C)N)C(F)(F)F)ccc1OCCO (stereo not shown) [Compound 673] |  | < 10 µM | > 100 µM | 1 to 50 µM
